Test system: multiple myeloma cells
Assay: MTS assay of multiple myeloma cells, combinations (CalcuSyn)
Assay type: cell-based
Protocol: APX3330 in combination with chemotherapeutic Melphalan. […] Synergistic plots made using CalcuSyn software. APX3330 was either given alone or in combination with melphalan. As an indicator of DNA double stranded breaks (DSBs), the phosphorylation of histone H2AX at Ser^139 was measured with a phosphorylation-specific H2AX antibody from Upstate Cell Signaling Solutions (Waltham, Md.). Cells were treated with melphalan alone or melphalan plus APX3330. After drug treatment, exponentially growing cells were harvested, washed in cold PBS, and lysed in about 100 μL RIPA assay buffer as described above. Protein was quantified and electrophoresed in SDS gel-loading buffer on a 12% SDS-polyacrylamide gel. Mouse monoclonal anti-phosphohistone H2AX (about 1:1000) or anti-actin antibody (about 1:1000; as a loading control, LabVision Corp., NeoMarkers, Fremont, Calif.) was used to probe for protein levels as described previously. Bands were detected using a chemiluminescence kit from Roche Applied Biosciences (Indianapolis, Ind.). The bands were visualized using Bio-Rad Chemidoc XRS (Hercules, Calif.) and quantitated using Chemidoc software, Quantity One 4.6.1. […]
APX3330 in combination with Methoxyamine-multiple myeloma cells. […] Data was calculated using the CalcuSyn software which is based on the Chou-Talalay algorithm (Chou-Talalay; Advances in Enzyme Regulation 22, 27-55). […]

CCCCCCCCC/C(=C\C1=C(C)C(=O)C(OC)=C(OC)C1=O)C(=O)O [APX3330]
killing of multiple myeloma cells in combination with melphalan (combination with melphalan, 72 hours): synergistically enhance the killing of multiple myeloma cells
killing of multiple myeloma cells in combination with methoxyamine (combination with methoxyamine): enhanced killing of multiple myeloma cells

— patent US11331294B2, “Benzoquinone derivative E3330 in combination with chemotherapeutic agents for the treatment of bladder cancer” (Indiana University Research and Technology Corporation, priority 2007, dated 2022)
